From article PMC4838890, “Dynamic and flexible H3K9me3 bridging via HP1β dimerization establishes a plastic state of condensed chromatin” (Nature Communications, 2016)
Read-outs that look alike come from different tables or passages of the source.

Target: H3K9me3 mononucleosome
Experiment: SPR, immobilized (symmetric) H3K9me3 mononucleosome
Format: binding, Xenopus laevis
Method: SPR measurements were performed on a Biacore 2000 instrument (GE Healthcare, Buckinghamshire, UK) at 298 K in 10 mM triethanolamine (pH 7.5), 150 mM NaCl, 0.1 mM EDTA, 1 mM DTT, 0.005% (v/v) Tween-20. Biotinylated ligands were immobilized on streptavidin-coated sensor chips SA (GE Healthcare, Buckinghamshire, UK). Before immobilization, sensor chips were conditioned as described by the manufacturer. To obtain low surface densities (5–24 RU), 5 nM biotinylated H3 peptide was injected at a low rate of 10 μl min^−1 using varying contact times. High surface densities (>700 RU) were prepared by injecting […] peptide (10 μl min^−1) until the SA surface was saturated. Peptide-containing chips were regenerated by applying three short pulses of 0.05% (w/v) SDS followed by an injection of 1.5 M NaCl for baseline stabilization. For binding assays, hHP1β proteins were injected at […] (serial twofold dilutions) for 2 min (30 μl/min). Dissociation was recorded for up to 5 min. A streptavidin surface without ligands served as reference. In addition, blank runs were performed for double referencing. Data evaluation was performed by steady-state analysis assuming a Langmuir 1:1 binding model using BIAevaluation 4.1 and Prism 5.04 (GraphPad, CA, USA) software. Binding to the unmodified peptides was analysed with maximum binding (RUmax) set to the corresponding values obtained with the modified peptides.
Figure S8 Hiragami-Hamada et al. […]
Supplementary Figure 8: hHP1β binds nucleosomes as dimer. […]
RU. Injection series are from 0.024 to 50 µM protein concentration. […]
(f) SPR response traces of injection of hHP1β WT into Biacore cells containing biotinylated, symmetrically modified H3K9me3-mononucleosomes (i.e. both H3-tails carry H3K9me3) immobilized […]
(also on this page, place not known: dimer . hHP1 β H3K9me3 - se nsory ( b) site -specific ( b) hHP1 β ( d) site -specific hHP1 β modifi ed H3K9me3 -mononucleosomes H3 -tails -30 -50 -8 -4 200 -10 110 -50 -10 -30 [μM] [μM] -10 190 150 -10 110 200 -10 110 μl/min μl/min μl/min -50 150 response [RU] response [RU] response [RU] response [RU] response [RU] [μM] 10 50 response [RU]40 0 0 [μM] 10 30 50 response [RU] 40 0 0 40 [μM] 10 30 50 response [RU] 140 40 0 120 0 40 response [RU] response [RU] response [RU] Kd Kd μM Kd μM 0.8 0.6 0.4 0.2 0 1 1.0 0.8 0.6 0.4 0.2 0.0 mass fraction) […]
on a sensory chip via covalently coated streptavidin. Immobilized mononucleosome was at 950 RU.
Injection series are from 0.024 to 50 µM protein concentration.
(g) Blot of signal over concentration of the titration in (f) to deduce an apparent Kd value. For reference, fitting of the data to a one and two site- specific binding model is shown.
(h) Same analysis as in (f) but with hHP1β I161A. […]

[1] = SPR titration 0.024 to 50 µM, symmetrically modified mononucleosome at 950 RU, one site-specific binding, read-out: apparent Kd (Supplementary Fig. 8g,i)
[2] = SPR, 150 mM NaCl, pH 7.5, 298 K, steady-state, WT value based on fitting to a one site-specific binding model, read-out: Kd (apparent dissociation constant)

| Substance | Kd [1] [nM] | Kd [2] [nM] |
| --- | --- | --- |
| hHP1β I161A: CSD point mutant of hHP1β incapable of dimerization | 4300 | 5200 ± 600 |
| hHP1β WT: recombinant human heterochromatin protein 1β (GenBank NM_001127228), 185 aa | 920 | 1000 ± 200 |
